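Grown in 96-well plates, cells were treated for 48 hours with each compound at five concentrations. Insufficient inhibition: endpoint recorded as highest concentration tested. TGI marks complete inhibition of growth.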
Tests used:
Experiment in all cases: NCI anticancer screen, dose series, 48 h
UACC-62 melanoma = tested on: UACC-62 melanoma
UO-31 renal = tested on: UO-31 renal
SNB-75 CNS = tested on: SNB-75 CNS
A498 renal = tested on: A498 renal
OVCAR-3 ovarian = tested on: OVCAR-3 ovarian
HCT-116 colon = tested on: HCT-116 colon
RXF 393 renal = tested on: RXF 393 renal
K-562 leukemia = tested on: K-562 leukemia
SF-295 CNS = tested on: SF-295 CNS
HCT-15 colon = tested on: HCT-15 colon
A549 NSCLC = tested on: A549 NSCLC
SN12C renal = tested on: SN12C renal
NCI-H460 lung = tested on: NCI-H460 lung
786-0 renal = tested on: 786-0 renal
MDA-N = tested on: MDA-N
HCC-2998 colon = tested on: HCC-2998 colon
MOLT-4 leukemia = tested on: MOLT-4 leukemia
HOP-62 NSCLC = tested on: HOP-62 NSCLC
MCF7 breast = tested on: MCF7 breast
OVCAR-8 ovarian = tested on: OVCAR-8 ovarian
KM12 colon = tested on: KM12 colon
CAKI-1 renal = tested on: CAKI-1 renal
NCI-H23 lung = tested on: NCI-H23 lung
ACHN renal = tested on: ACHN renal
RPMI-8226 leukemia = tested on: RPMI-8226 leukemia
SNB-19 CNS = tested on: SNB-19 CNS
NCI/ADR-RES ovarian = tested on: NCI/ADR-RES ovarian
SK-MEL-28 melanoma = tested on: SK-MEL-28 melanoma
HL-60(TB) leukemia = tested on: HL-60(TB) leukemia
BT-549 breast = tested on: BT-549 breast
SF-268 CNS = tested on: SF-268 CNS
MDA-MB-435 = tested on: MDA-MB-435
TK-10 renal = tested on: TK-10 renal
IGROV1 ovarian = tested on: IGROV1 ovarian
SF-539 CNS = tested on: SF-539 CNS
LOX IMVI melanoma = tested on: LOX IMVI melanoma
HOP-92 NSCLC = tested on: HOP-92 NSCLC
DU-145 prostate = tested on: DU-145 prostate
EKVX NSCLC = tested on: EKVX NSCLC
SK-MEL-2 melanoma = tested on: SK-MEL-2 melanoma
SW-620 colon = tested on: SW-620 colon
HT29 colon = tested on: HT29 colon
U251 CNS = tested on: U251 CNS
NCI-H522 lung = tested on: NCI-H522 lung
COLO 205 colon = tested on: COLO 205 colon
SK-OV-3 ovarian = tested on: SK-OV-3 ovarian
SK-MEL-5 melanoma = tested on: SK-MEL-5 melanoma
HS 578T breast = tested on: HS 578T breast
OVCAR-5 ovarian = tested on: OVCAR-5 ovarian
OVCAR-4 ovarian = tested on: OVCAR-4 ovarian
UACC-257 melanoma = tested on: UACC-257 melanoma
MALME-3M melanoma = tested on: MALME-3M melanoma
PC-3 prostate = tested on: PC-3 prostate
MDA-MB-231 breast = tested on: MDA-MB-231 breast
NCI-H226 lung = tested on: NCI-H226 lung
M14 melanoma = tested on: M14 melanoma
CCRF-CEM leukemia = tested on: CCRF-CEM leukemia
SR leukemia = tested on: SR leukemia
T-47D breast = tested on: T-47D breast

Q: How did the TGI (UACC-62 melanoma) turn out when `CC(=O)Nc1ccc2c3c(cc(O)c2c1)N(C(=O)CCCCC(=O)Nc1ccc2c4c(cc(O)c2c1)N(C(=O)OC(C)(C)C)CC4CCl)CC3CCl` (stereo unspecified) was run?
A: 3.16 µM

Q: What about the TGI (UO-31 renal) of the same molecule?
A: > 63.9 µM

Q: And the TGI (SNB-75 CNS)?
A: 4.59 µM

Q: And the TGI (A498 renal)?
A: 4.57 µM

Q: And the TGI (OVCAR-3 ovarian)?
A: 5.41 µM

Q: What about the TGI (HCT-116 colon) of the same molecule?
A: > 33.2 µM

Q: What about the TGI (RXF 393 renal) of the same molecule?
A: 3.26 µM

Q: What about the TGI (K-562 leukemia) of the same molecule?
A: > 100 µM

Q: What about the TGI (SF-295 CNS) of the same molecule?
A: > 56.8 µM

Q: What about the TGI (HCT-15 colon) of the same molecule?
A: 48.2 µM

Q: And the TGI (A549 NSCLC)?
A: > 55.6 µM

Q: What about the TGI (SN12C renal) of the same molecule?
A: 21.8 µM

Q: And the TGI (NCI-H460 lung)?
A: > 33.8 µM

Q: And the TGI (786-0 renal)?
A: 9.36 µM

Q: What about the TGI (MDA-N) of the same molecule?
A: 3.85 µM

Q: What about the TGI (HCC-2998 colon) of the same molecule?
A: 3.79 µM

Q: What about the TGI (MOLT-4 leukemia) of the same molecule?
A: > 34.4 µM

Q: And the TGI (HOP-62 NSCLC)?
A: > 33.2 µM

Q: What about the TGI (MCF7 breast) of the same molecule?
A: 5.16 µM

Q: What about the TGI (OVCAR-8 ovarian) of the same molecule?
A: > 38.7 µM

Q: What about the TGI (KM12 colon) of the same molecule?
A: > 100 µM

Q: And the TGI (CAKI-1 renal)?
A: 71.5 µM

Q: What about the TGI (NCI-H23 lung) of the same molecule?
A: 7.09 µM

Q: And the TGI (ACHN renal)?
A: 16.1 µM

Q: And the TGI (RPMI-8226 leukemia)?
A: > 25.8 µM

Q: What about the TGI (SNB-19 CNS) of the same molecule?
A: > 29.5 µM

Q: What about the TGI (NCI/ADR-RES ovarian) of the same molecule?
A: > 79.7 µM

Q: And the TGI (SK-MEL-28 melanoma)?
A: 23.2 µM

Q: What about the TGI (HL-60(TB) leukemia) of the same molecule?
A: 12.4 µM

Q: And the TGI (BT-549 breast)?
A: > 27.1 µM

Q: What about the TGI (SF-268 CNS) of the same molecule?
A: 7.21 µM

Q: What about the TGI (MDA-MB-435) of the same molecule?
A: 2.95 µM

Q: And the TGI (TK-10 renal)?
A: > 65.5 µM

Q: What about the TGI (IGROV1 ovarian) of the same molecule?
A: > 32.8 µM

Q: And the TGI (SF-539 CNS)?
A: 7.62 µM

Q: And the TGI (LOX IMVI melanoma)?
A: > 34.6 µM

Q: And the TGI (HOP-92 NSCLC)?
A: 32.8 µM

Q: What about the TGI (DU-145 prostate) of the same molecule?
A: 4.39 µM

Q: And the TGI (EKVX NSCLC)?
A: 35.2 µM

Q: And the TGI (SK-MEL-2 melanoma)?
A: 3.49 µM

Q: What about the TGI (SW-620 colon) of the same molecule?
A: > 100 µM

Q: What about the TGI (HT29 colon) of the same molecule?
A: > 37.9 µM

Q: What about the TGI (U251 CNS) of the same molecule?
A: 10 µM

Q: And the TGI (NCI-H522 lung)?
A: 4.1 µM

Q: And the TGI (COLO 205 colon)?
A: 4.17 µM

Q: And the TGI (SK-OV-3 ovarian)?
A: > 85.3 µM

Q: What about the TGI (SK-MEL-5 melanoma) of the same molecule?
A: 3.18 µM

Q: What about the TGI (HS 578T breast) of the same molecule?
A: > 26.6 µM

Q: And the TGI (OVCAR-5 ovarian)?
A: 10.6 µM

Q: And the TGI (OVCAR-4 ovarian)?
A: > 24.3 µM

Q: What about the TGI (UACC-257 melanoma) of the same molecule?
A: 5.16 µM

Q: And the TGI (MALME-3M melanoma)?
A: 3.52 µM

Q: What about the TGI (PC-3 prostate) of the same molecule?
A: > 44.8 µM

Q: What about the TGI (MDA-MB-231 breast) of the same molecule?
A: 26.8 µM

Q: And the TGI (NCI-H226 lung)?
A: 5.55 µM

Q: What about the TGI (M14 melanoma) of the same molecule?
A: > 34.1 µM

Q: What about the TGI (CCRF-CEM leukemia) of the same molecule?
A: 4.53 µM

Q: For `COCc1cc2c(cc1/C=C/[N+](=O)[O-])OCO2`, which TGI (UACC-62 melanoma) is on record?
A: 32 µM

Q: And the TGI (UO-31 renal)?
A: 30.9 µM

Q: What about the TGI (SNB-75 CNS) of the same molecule?
A: 31.9 µM

Q: What about the TGI (A498 renal) of the same molecule?
A: 30.8 µM

Q: What about the TGI (OVCAR-3 ovarian) of the same molecule?
A: 33.7 µM

Q: And the TGI (HCT-116 colon)?
A: 34 µM

Q: And the TGI (RXF 393 renal)?
A: 32.3 µM

Q: And the TGI (K-562 leukemia)?
A: > 100 µM

Q: What about the TGI (SF-295 CNS) of the same molecule?
A: 36.3 µM

Q: What about the TGI (HCT-15 colon) of the same molecule?
A: 36.8 µM

Q: And the TGI (A549 NSCLC)?
A: 32.2 µM

Q: And the TGI (SN12C renal)?
A: 34 µM

Q: What about the TGI (SR leukemia) of the same molecule?
A: > 100 µM

Q: What about the TGI (NCI-H460 lung) of the same molecule?
A: 34.3 µM

Q: And the TGI (786-0 renal)?
A: 33.5 µM

Q: And the TGI (MDA-N)?
A: 32.6 µM

Q: And the TGI (HCC-2998 colon)?
A: 32 µM

Q: And the TGI (MOLT-4 leukemia)?
A: > 100 µM

Q: What about the TGI (HOP-62 NSCLC) of the same molecule?
A: 35.8 µM

Q: And the TGI (MCF7 breast)?
A: 48.9 µM

Q: What about the TGI (T-47D breast) of the same molecule?
A: 41.8 µM

Q: And the TGI (OVCAR-8 ovarian)?
A: 55.2 µM

Q: And the TGI (KM12 colon)?
A: 35.8 µM

Q: And the TGI (CAKI-1 renal)?
A: 34.2 µM

Q: What about the TGI (NCI-H23 lung) of the same molecule?
A: 44 µM

Q: And the TGI (ACHN renal)?
A: 30.9 µM

Q: What about the TGI (RPMI-8226 leukemia) of the same molecule?
A: > 100 µM

Q: And the TGI (NCI/ADR-RES ovarian)?
A: 47 µM

Q: And the TGI (SK-MEL-28 melanoma)?
A: 25.2 µM

Q: What about the TGI (HL-60(TB) leukemia) of the same molecule?
A: 85.6 µM

Q: What about the TGI (SF-268 CNS) of the same molecule?
A: 40.4 µM

Q: And the TGI (MDA-MB-435)?
A: 33.2 µM

Q: And the TGI (TK-10 renal)?
A: 30.8 µM

Q: And the TGI (IGROV1 ovarian)?
A: 51.1 µM

Q: And the TGI (SF-539 CNS)?
A: 44.9 µM

Q: What about the TGI (LOX IMVI melanoma) of the same molecule?
A: 67.9 µM

Q: What about the TGI (HOP-92 NSCLC) of the same molecule?
A: 36.8 µM

Q: What about the TGI (DU-145 prostate) of the same molecule?
A: 34.4 µM

Q: And the TGI (EKVX NSCLC)?
A: 36.5 µM

Q: What about the TGI (SW-620 colon) of the same molecule?
A: 40.7 µM

Q: What about the TGI (HT29 colon) of the same molecule?
A: 34.6 µM

Q: And the TGI (U251 CNS)?
A: 31.6 µM

Q: And the TGI (NCI-H522 lung)?
A: 41.2 µM

Q: And the TGI (COLO 205 colon)?
A: 38.4 µM

Q: What about the TGI (SK-OV-3 ovarian) of the same molecule?
A: 31.9 µM

Q: What about the TGI (SK-MEL-5 melanoma) of the same molecule?
A: 37.6 µM

Q: And the TGI (HS 578T breast)?
A: 44.3 µM

Q: And the TGI (OVCAR-5 ovarian)?
A: 30.6 µM

Q: And the TGI (UACC-257 melanoma)?
A: 30.8 µM

Q: And the TGI (PC-3 prostate)?
A: 24.6 µM

Q: And the TGI (MDA-MB-231 breast)?
A: 34.7 µM

Q: And the TGI (NCI-H226 lung)?
A: 42.9 µM

Q: What about the TGI (M14 melanoma) of the same molecule?
A: 30.6 µM

Q: And the TGI (CCRF-CEM leukemia)?
A: 37.7 µM

From PubChem BioAssay (NCI)
